Experimental data as given in ChEMBL document CHEMBL1201862, “PubChem BioAssay data set” (2004).
Each block holds one molecule with its values, some of them ahead of it. Activity calls are given as the source filed them.

Legend:
[1] = inhibitors of intracellular T. cruzi replication, confirmation, NIH3T3 host cells, beta-gal luminescence (AID 2044); format: functional, cell-based;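 note: intracellular parasites grown in NIH/3T3 mouse fibroblasts as host cells; luminescent beta-galactosidase reporter signal from transgenic T. cruzi replicating inside host cells; inhibitors lower the luminescence signal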
[2] = cytotoxicity toward NIH3T3 fibroblasts, dose response, counter-screen, cell-based, ATP luminescence, mouse fibroblasts (AID 2010); format: functional;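 note: cells exposed to compound for about 90 hours before reading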
Coagulation factor XII = molecular target: T1, Coagulation factor XII (Homo sapiens, UniProt P00748); format: functional;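 note: activated factor XIIa alpha cleaving a fluorogenic AMC peptide substrate; inhibitor potency from loss of enzyme activity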
T1 sequence (P00748 whole entry): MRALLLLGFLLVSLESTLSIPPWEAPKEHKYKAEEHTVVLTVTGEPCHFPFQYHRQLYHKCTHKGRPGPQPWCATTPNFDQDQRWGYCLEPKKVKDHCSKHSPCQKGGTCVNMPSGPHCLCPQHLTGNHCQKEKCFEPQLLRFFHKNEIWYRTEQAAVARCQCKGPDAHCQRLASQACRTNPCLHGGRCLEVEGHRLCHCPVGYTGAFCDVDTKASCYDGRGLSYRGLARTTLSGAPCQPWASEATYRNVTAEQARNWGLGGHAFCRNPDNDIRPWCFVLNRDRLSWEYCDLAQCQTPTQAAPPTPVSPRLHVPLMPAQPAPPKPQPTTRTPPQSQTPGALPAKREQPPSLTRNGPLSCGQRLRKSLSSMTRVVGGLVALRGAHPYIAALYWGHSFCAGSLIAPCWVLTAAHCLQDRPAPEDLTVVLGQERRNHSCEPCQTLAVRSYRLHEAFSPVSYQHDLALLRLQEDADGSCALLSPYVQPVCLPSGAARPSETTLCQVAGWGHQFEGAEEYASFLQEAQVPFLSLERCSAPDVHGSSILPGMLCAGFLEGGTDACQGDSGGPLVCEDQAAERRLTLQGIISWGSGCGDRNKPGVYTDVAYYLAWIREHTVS

INS1 = test: beta cell apoptosis inhibitors, cytokine rescue, dose response, luminescence, retest (AID 449756); format: functional, cell-based; conditions: Rattus norvegicus;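 note: cell death triggered by IL-1 beta plus TNF-alpha plus IFN-gamma mixture; protective hits raise ATP signal compared with cytokine alone wells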
[3] = inhibitors of Vif binding to APOBEC3G peptide, primary screen, biochemical, TR-FRET, GST-Vif 1-94, biotin-A3G peptide, dose response retest (AID 1117319); format: functional;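 note: TR-FRET signal of purified GST-Vif binding a biotinylated A3G peptide; inhibitors lower the FRET signal by blocking Vif and A3G binding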
[4] = Vero cell cytotoxicity, dose response, cytotoxicity control for Vif-APOBEC3G degradation inhibitor project, Vero cells (AID 1117358); format: functional; conditions: Human immunodeficiency virus 1, Vero
fMet-Leu-Phe receptor = fMet-Leu-Phe receptor (Homo sapiens, UniProt P21462); test: FPR ligands, dose response (AID 519); format: functional
[5] = molecular target: Glutathione-S-transferase (Schistosoma japonicum, UniProt Q26513); test: biotin-GST/anti-GST TR-FRET signal inhibitors, dose response, artefact control for Vif-APOBEC3G degradation inhibitor project, biochemical (AID 1117362); format: functional
[6] = molecular target: NAD-dependent protein deacylase sirtuin-5, mitochondrial (Homo sapiens, UniProt Q9NXA8); test: SIRT5 desuccinylase inhibitors, dose response, biochemical, fluorescence imaging, cherry-pick, set 5 (AID 720591);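 note: desuccinylation of succinyl peptide AMC substrate read as fluorescence after trypsin release; potency of inhibitors that lower fluorescence and may act on trypsin instead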
Cytochrome P450 3A4 = Cytochrome P450 3A4 (Homo sapiens, UniProt P08684);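 note: CYP3A4 tested as one member of a cytochrome P450 panel screen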
[7] = molecular target: Disintegrin and metalloproteinase domain-containing protein 17 (Homo sapiens, UniProt P78536); test: exosite inhibitors of ADAM17, dose response, biochemical (AID 743260)
[8] = ADAM10 protease inhibitors, dose response, selectivity assay for ADAM17 exosite inhibitor project, biochemical, FRET peptide substrate, recombinant human ADAM10 (AID 743259);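 note: ADAM10 enzyme cleaving a FRET peptide substrate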
[9] = cytotoxicity in A549 cells, dose response, cytotoxicity control, cell-based, CellTiter-Glo luminescence, cherry-pick (AID 743484); format: functional
[10] = Luminescence-based cell-based high throughput dose response assay to identify activators of the DAF-12 from the parasite S. stercoralis (ssDAF-12).; format: functional
[11] = molecular target: T2, Oxysterols receptor LXR-beta (Homo sapiens, UniProt P55055); test: LXR agonists, Gal4 luciferase reporter, dose response, counter-screen for ssDAF-12 agonist project, cell-based, luminescence, HEK293, S. stercoralis campaign (AID 720737); format: functional; conditions: read-out: IC50 (the source's name)
T2 sequence (P55055 whole entry): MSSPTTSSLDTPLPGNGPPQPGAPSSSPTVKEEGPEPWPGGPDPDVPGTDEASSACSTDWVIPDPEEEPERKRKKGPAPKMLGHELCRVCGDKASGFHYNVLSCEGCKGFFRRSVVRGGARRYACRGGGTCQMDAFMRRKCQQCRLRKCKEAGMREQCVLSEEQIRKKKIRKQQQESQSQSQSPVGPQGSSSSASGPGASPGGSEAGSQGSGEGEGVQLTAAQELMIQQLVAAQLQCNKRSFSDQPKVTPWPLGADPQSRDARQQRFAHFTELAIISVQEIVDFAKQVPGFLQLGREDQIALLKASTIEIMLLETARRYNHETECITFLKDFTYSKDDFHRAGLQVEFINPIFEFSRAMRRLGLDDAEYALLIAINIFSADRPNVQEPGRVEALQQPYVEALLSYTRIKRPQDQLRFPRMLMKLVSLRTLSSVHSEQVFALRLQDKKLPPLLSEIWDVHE

HeLa = test: HeLa cell cytotoxicity, dose response, cytotoxicity control, ATP luminescence, cherry-pick samples (AID 687004); format: functional, cell-based; conditions: Homo sapiens
HEK293 = test: HEK293T cell cytotoxicity, dose response, cytotoxicity control, ATP luminescence, cherry-pick samples (AID 687005); format: functional, cell-based; conditions: Homo sapiens;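 note: cells exposed to compound for 48 hours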
[12] = HEK293 Cytotoxicity Assay Measured in Cell-Based System Using Plate Reader - 7071-01_Inhibitor_Dose_CherryPick_Activity_Set2.; format: functional

Glutathione-S-transferase, sequence (Q26513 whole entry): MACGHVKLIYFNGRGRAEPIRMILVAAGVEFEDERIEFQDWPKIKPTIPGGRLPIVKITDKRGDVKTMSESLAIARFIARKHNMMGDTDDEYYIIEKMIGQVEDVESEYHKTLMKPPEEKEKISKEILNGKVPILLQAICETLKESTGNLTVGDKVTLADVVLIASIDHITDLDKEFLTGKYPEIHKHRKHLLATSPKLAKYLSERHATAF
Disintegrin and metalloproteinase domain-containing protein 17, sequence (P78536 whole entry, the tested form may be a part): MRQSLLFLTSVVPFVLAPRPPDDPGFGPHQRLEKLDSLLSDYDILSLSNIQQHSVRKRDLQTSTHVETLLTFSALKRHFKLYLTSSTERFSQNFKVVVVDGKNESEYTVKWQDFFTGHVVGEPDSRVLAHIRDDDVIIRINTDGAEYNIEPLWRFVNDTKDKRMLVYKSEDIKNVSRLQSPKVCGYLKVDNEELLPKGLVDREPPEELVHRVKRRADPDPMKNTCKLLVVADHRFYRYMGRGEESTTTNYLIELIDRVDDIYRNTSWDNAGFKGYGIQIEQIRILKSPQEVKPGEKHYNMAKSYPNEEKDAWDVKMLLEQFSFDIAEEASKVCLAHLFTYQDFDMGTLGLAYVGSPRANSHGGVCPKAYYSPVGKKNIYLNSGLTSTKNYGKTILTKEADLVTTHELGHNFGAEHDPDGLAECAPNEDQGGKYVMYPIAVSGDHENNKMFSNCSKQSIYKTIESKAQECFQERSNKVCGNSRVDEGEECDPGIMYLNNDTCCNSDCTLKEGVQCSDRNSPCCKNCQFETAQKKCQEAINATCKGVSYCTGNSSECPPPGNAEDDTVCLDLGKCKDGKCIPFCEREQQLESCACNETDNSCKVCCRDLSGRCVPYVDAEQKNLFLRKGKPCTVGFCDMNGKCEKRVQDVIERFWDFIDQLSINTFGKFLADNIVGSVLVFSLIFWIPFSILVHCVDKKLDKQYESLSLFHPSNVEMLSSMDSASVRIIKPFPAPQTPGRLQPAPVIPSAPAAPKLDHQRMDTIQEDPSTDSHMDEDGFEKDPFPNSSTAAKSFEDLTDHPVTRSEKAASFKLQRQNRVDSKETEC
fMet-Leu-Phe receptor, sequence (P21462 whole entry): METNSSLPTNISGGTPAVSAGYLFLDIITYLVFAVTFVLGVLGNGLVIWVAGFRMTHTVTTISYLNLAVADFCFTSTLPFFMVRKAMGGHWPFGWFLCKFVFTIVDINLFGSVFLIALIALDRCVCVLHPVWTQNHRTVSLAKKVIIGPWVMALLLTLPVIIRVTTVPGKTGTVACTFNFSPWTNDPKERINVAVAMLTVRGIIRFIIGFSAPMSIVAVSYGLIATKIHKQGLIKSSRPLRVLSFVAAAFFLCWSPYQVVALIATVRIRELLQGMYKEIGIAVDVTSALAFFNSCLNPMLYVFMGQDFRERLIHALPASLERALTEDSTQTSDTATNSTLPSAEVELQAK
NAD-dependent protein deacylase sirtuin-5, mitochondrial, sequence (Q9NXA8 whole entry): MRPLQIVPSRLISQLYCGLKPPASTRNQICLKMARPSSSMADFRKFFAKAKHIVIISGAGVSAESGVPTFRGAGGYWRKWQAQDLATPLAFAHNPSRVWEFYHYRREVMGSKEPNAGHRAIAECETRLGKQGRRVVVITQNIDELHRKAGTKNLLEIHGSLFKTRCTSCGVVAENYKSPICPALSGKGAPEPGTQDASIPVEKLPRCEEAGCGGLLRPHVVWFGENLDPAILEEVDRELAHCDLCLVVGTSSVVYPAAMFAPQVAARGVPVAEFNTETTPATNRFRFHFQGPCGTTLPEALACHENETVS
Cytochrome P450 3A4, sequence (P08684 whole entry, the tested form may be a part): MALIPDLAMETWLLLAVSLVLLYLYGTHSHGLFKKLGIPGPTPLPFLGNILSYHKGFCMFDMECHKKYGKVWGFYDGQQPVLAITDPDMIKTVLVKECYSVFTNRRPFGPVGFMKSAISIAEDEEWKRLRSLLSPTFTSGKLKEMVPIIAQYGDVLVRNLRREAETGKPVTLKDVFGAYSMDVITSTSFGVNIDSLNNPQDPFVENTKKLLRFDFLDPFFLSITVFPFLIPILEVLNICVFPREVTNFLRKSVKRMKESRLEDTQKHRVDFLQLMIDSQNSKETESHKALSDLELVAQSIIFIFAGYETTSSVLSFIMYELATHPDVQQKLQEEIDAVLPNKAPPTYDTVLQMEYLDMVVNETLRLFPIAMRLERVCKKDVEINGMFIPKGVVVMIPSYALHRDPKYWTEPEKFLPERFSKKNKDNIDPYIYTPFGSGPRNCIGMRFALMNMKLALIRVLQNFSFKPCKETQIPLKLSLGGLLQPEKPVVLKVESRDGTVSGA

Structure (SMILES): Cc1ccccc1N1CCN(Cc2c[nH]c3ccccc23)CC1
EC50 [1]: 0.623 µM (active) | EC50 [2]: > 60 µM (not active) | IC50 (Coagulation factor XII): > 50 µM (inactive) | AC50 (INS1): 7.61 µM (active) | IC50 [3]: > 100 µM (active) | CC50 [4]: > 40 µM (active)

Structure (SMILES): COC(=O)c1[nH]c(C)c(C(=O)C2=C(O)C(=O)N(CCN3CCOCC3)C2c2cccs2)c1C (centres undefined)
Ki (fMet-Leu-Phe receptor): 5 µM (active)

Structure (SMILES): CC1(Cc2ccccc2C#N)C(=O)Nc2cc(-c3ccccc3Cl)ccc21 (centres undefined)
AC50 [9]: > 52 µM (inactive)

Structure (SMILES): O=C(Cc1ccccc1[N+](=O)[O-])NCCc1ccc(F)cc1
IC50 [10]: > 67.6 µM (inactive) | EC50 [11]: > 67.6 µM (inactive)

Structure (SMILES): C[C@@H]1CN([C@@H](C)CO)S(=O)(=O)c2ccc(C#Cc3ccccn3)cc2O[C@H]1CN(C)Cc1ccccc1
AC50 (HeLa): 39.1 µM (active) | AC50 (HEK293): 7.04 µM (active) | AC50 [12]: 7.04 µM (active)

The next lines start with results.

IC50 [5]: > 100 µM (active) | IC50 [3]: > 100 µM (active)
Structure (SMILES): CCN1CCN(c2ccc(NC(=O)Cc3ccccc3)cc2)CC1

AC50 [6]: > 30 µM (inactive) | AC50 (Cytochrome P450 3A4): 1.41 µM (inconclusive)
Structure (SMILES): CCc1ccc(N(C(=O)c2csnn2)C(C(=O)NCc2ccccc2)c2ccco2)cc1 (centres undefined)

IC50 [7]: > 69.5 µM (inactive)
Structure (SMILES): Cc1cc(Nc2ccc(Cl)cc2)n(-c2cccc(Cl)c2)n1
IC50 [8]: 21.3 µM (inactive)
